Assay results taken from article PMC10463274 (2023).

Columns and labels:
[1] = tested on: vancomycin aptamer (DNA, aptamer) CGAGGGTACCGCAATAGTACTTATTGTTCGCCTATTGTGGGTCGG; assay: FFT-EIS electrochemical aptamer-based sensor (ket titration); conditions: whole bovine blood, 37 °C; apparent; error is 95% confidence interval; Hill–Langmuir fit
[2] = tested on: phenylalanine aptamer (DNA, aptamer) CGACCGCGTTTCCCAAGAAAGCAAGTATTGGTTGGTCG; assay: FFT-EIS electrochemical aptamer-based sensor; conditions: in vitro calibration; details only in supporting information

CN[C@H](CC(C)C)C(=O)N[C@H]1C(=O)N[C@@H](CC(N)=O)C(=O)N[C@H]2C(=O)N[C@H]3C(=O)N[C@H](C(=O)N[C@H](C(=O)O)c4cc(O)cc(O)c4-c4cc3ccc4O)[C@H](O)c3ccc(c(Cl)c3)Oc3cc2cc(c3O[C@@H]2O[C@H](CO)[C@@H](O)[C@H](O)[C@H]2O[C@H]2C[C@](C)(N)[C@H](O)[C@H](C)O2)Oc2ccc(cc2Cl)[C@H]1O
KD [1]: 144 ± 31 µM

N[C@@H](Cc1ccccc1)C(=O)O
binding [2]: yes
